Where “and” joins values, the source holds several entries; their conditions need not be identical. Equal values may be shown once.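 Briefly, cells in 96-well plates were exposed to five compound concentrations for 48 h, and endpoints were estimated by linear interpolation. GI50 marks 50% less growth. TGI is the concentration that stops growth completely.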
Legend:
Assay in all cases: inhibition of tumour cell growth, NCI panel, 48 h
UO-31 renal = test system: UO-31 renal
SW-620 colon = test system: SW-620 colon
CCRF-CEM leukemia = test system: CCRF-CEM leukemia
HCC-2998 colon = test system: HCC-2998 colon
CAKI-1 renal = test system: CAKI-1 renal
KM12 colon = test system: KM12 colon
RPMI-8226 leukemia = test system: RPMI-8226 leukemia
SNB-19 CNS = test system: SNB-19 CNS
HS 578T breast = test system: HS 578T breast
IGROV1 ovarian = test system: IGROV1 ovarian

## CC(C)=CCNc1ncnc2c1ncn2C1OC(CO)C(O)C1O (stereo not given)
UO-31 renal
  GI50: 6.94 µM
  TGI: 50 µM
SW-620 colon
  GI50: 0.725 µM
  TGI: 24.7 µM
CCRF-CEM leukemia
  GI50: 0.456 µM
  TGI: 3.17 µM
HCC-2998 colon
  GI50: 4.49 µM
  TGI: 94.3 µM
CAKI-1 renal
  GI50: 0.721 µM
  TGI: 4.74 µM
KM12 colon
  GI50: 2.74 µM
  TGI: > 630 µM
RPMI-8226 leukemia
  GI50: 2.91 µM
  TGI: 25.2 µM
SNB-19 CNS
  GI50: 3.81 µM
  TGI: > 201 µM
HS 578T breast
  GI50: 0.684 µM
  TGI: 4.33 µM
IGROV1 ovarian
  GI50: 0.573 µM
  TGI: 19.2 µM

## N#Cc1c(NN)n(C2OC(CO)C(O)C2O)c2ncnc(N)c12 (stereo not given)
UO-31 renal
  GI50: 0.0417 µM
  TGI: 0.774 µM
SW-620 colon
  GI50: 0.0254 µM
  TGI: 1.18 µM
CCRF-CEM leukemia
  GI50: 0.13 µM
  TGI: 0.605 µM
HCC-2998 colon
  GI50: 0.292 µM
  TGI: 2.41 µM
CAKI-1 renal
  GI50: 0.0619 µM
  TGI: 0.639 µM
KM12 colon
  GI50: 0.0874 µM
  TGI: 1.72 µM
RPMI-8226 leukemia
  GI50: 0.105 µM
  TGI: 0.614 µM
SNB-19 CNS
  GI50: 0.395 µM
  TGI: > 29.5 µM
HS 578T breast
  GI50: 0.0382 µM
  TGI: 0.429 µM
IGROV1 ovarian
  GI50: 0.057 µM
  TGI: 0.348 µM

## C=C1CC[C@@H]2[C@](C)(COC(C)=O)[C@H](OC(C)=O)CC[C@@]2(C)[C@@H]1CC(Sc1ccccc1)C1=CCOC1=O (stereo not given in full)
UO-31 renal
  GI50: 1.2 µM
  TGI: 2.53 µM
SW-620 colon
  GI50: 0.716 µM
  TGI: 3.64 µM
CCRF-CEM leukemia
  GI50: 0.266 µM
  TGI: 1.19 µM
HCC-2998 colon
  GI50: 2.1 µM
  TGI: 4.07 µM
CAKI-1 renal
  GI50: 2.77 µM
  TGI: 11.5 µM
KM12 colon
  GI50: 1.4 µM
  TGI: 2.96 µM
RPMI-8226 leukemia
  GI50: 0.343 µM
  TGI: 2.73 µM
SNB-19 CNS
  GI50: 1.78 µM
  TGI: 3.77 µM
HS 578T breast
  GI50: 4.89 µM
  TGI: 63.3 µM

## CCN(CC)CCC(CNc1ccnc2cc(Cl)ccc12)c1ccc(OC)cc1 (stereo not given)
UO-31 renal
  GI50: 1.54 µM and 1.88 µM
  TGI: 4.35 µM and 11.6 µM
SW-620 colon
  GI50: 8.16 µM and 4.1 µM
  TGI: 22.6 µM and 21.7 µM
CCRF-CEM leukemia
  GI50: 13.1 µM and 2.77 µM
  TGI: 55.9 µM and 28.7 µM
HCC-2998 colon
  GI50: 3.5 µM and 2.44 µM
  TGI: 16.2 µM and 6.32 µM
CAKI-1 renal
  GI50: 5.85 µM and 2.54 µM
  TGI: 23.2 µM and 15.9 µM
KM12 colon
  GI50: 12.8 µM and 5.62 µM
  TGI: 28.6 µM and 21.5 µM
RPMI-8226 leukemia
  GI50: 7.14 µM and 2.12 µM
  TGI: 35.5 µM and 8.15 µM
SNB-19 CNS
  GI50: 10.3 µM and 11 µM
  TGI: 29 µM and 29.9 µM
HS 578T breast
  GI50: 5.51 µM and 7.53 µM
  TGI: 23.4 µM and 34.3 µM
IGROV1 ovarian
  GI50: 10.7 µM and 4.28 µM
  TGI: 39.8 µM and 24.2 µM

## COc1cc(N(CCC#N)CCC#N)ccc1/C(N=Nc1ccc([N+](=O)[O-])cc1)=N/NC(=O)c1cc(Br)ccc1O
UO-31 renal
  GI50: 48.4 µg/mL
  TGI: > 150 µg/mL
SW-620 colon
  GI50: 57.4 µg/mL
  TGI: > 150 µg/mL
CCRF-CEM leukemia
  GI50: 48.5 µg/mL
  TGI: > 150 µg/mL
HCC-2998 colon
  GI50: 40.9 µg/mL
  TGI: 78.7 µg/mL
CAKI-1 renal
  GI50: 65.9 µg/mL
  TGI: > 150 µg/mL
KM12 colon
  GI50: 28.5 µg/mL
  TGI: 71 µg/mL
RPMI-8226 leukemia
  GI50: 38.2 µg/mL
  TGI: > 150 µg/mL
SNB-19 CNS
  GI50: 58.5 µg/mL
  TGI: > 150 µg/mL
HS 578T breast
  GI50: 69.8 µg/mL
  TGI: > 150 µg/mL
IGROV1 ovarian
  GI50: 26.6 µg/mL
  TGI: 121 µg/mL

## CC(=O)c1cccc(NC(=O)C(=O)NNc2n[nH]c(=S)n2N)c1
UO-31 renal
  TGI: 22.6 µM
SW-620 colon
  TGI: 22.5 µM
CCRF-CEM leukemia
  TGI: 20.3 µM
HCC-2998 colon
  TGI: 27.5 µM
CAKI-1 renal
  TGI: 34.4 µM
KM12 colon
  TGI: 30.9 µM
RPMI-8226 leukemia
  TGI: 58.8 µM
SNB-19 CNS
  TGI: 21.2 µM
HS 578T breast
  TGI: 7.48 µM
IGROV1 ovarian
  TGI: 25.8 µM

## Cc1cc(I)cc(CN(C)CCCN2CCCCCCC2)c1O
UO-31 renal
  GI50: 11.8 µM
  TGI: 26.2 µM
SW-620 colon
  GI50: 16.2 µM
  TGI: 30.8 µM
CCRF-CEM leukemia
  GI50: 6.22 µM
  TGI: 21.9 µM
HCC-2998 colon
  GI50: 18.1 µM
  TGI: 36.8 µM
CAKI-1 renal
  GI50: 13.8 µM
  TGI: 28 µM
KM12 colon
  GI50: 14.2 µM
  TGI: 31 µM
RPMI-8226 leukemia
  GI50: 7.9 µM
  TGI: 24.2 µM
SNB-19 CNS
  GI50: 20.4 µM
  TGI: 44.5 µM
HS 578T breast
  GI50: 15.7 µM
  TGI: 33.7 µM
IGROV1 ovarian
  GI50: 15.4 µM
  TGI: 32 µM

## Cn1c2ccccc2c2c3c(c4c5cc(Br)ccc5n(C)c4c21)C(=O)N(O)C3=O
SW-620 colon
  GI50: 0.127 µM
  TGI: > 100 µM
CCRF-CEM leukemia
  GI50: 0.0323 µM
  TGI: 0.185 µM
HCC-2998 colon
  GI50: 1.01 µM
  TGI: > 100 µM
KM12 colon
  GI50: 0.426 µM
  TGI: > 100 µM
SNB-19 CNS
  GI50: 0.0536 µM
  TGI: > 100 µM
HS 578T breast
  GI50: 1.09 µM
  TGI: > 100 µM
IGROV1 ovarian
  GI50: 0.284 µM
  TGI: > 100 µM

## O=C(O)CCC(=O)c1ccc[nH]1
UO-31 renal
  TGI: > 100 µM
CAKI-1 renal
  TGI: > 100 µM
KM12 colon
  TGI: > 100 µM
RPMI-8226 leukemia
  TGI: > 100 µM
SNB-19 CNS
  TGI: > 100 µM
HS 578T breast
  TGI: > 100 µM
IGROV1 ovarian
  TGI: > 100 µM

## C=C1C(=O)O[C@@H]2C[C@@H]1CC/C(C)=C/CC/C(C)=C/CC[C@@]2(C)O
UO-31 renal
  GI50: 16.3 µM
  TGI: 33.4 µM
SW-620 colon
  GI50: 25.3 µM
  TGI: 52.5 µM
HCC-2998 colon
  GI50: 14 µM
  TGI: 28.7 µM
CAKI-1 renal
  GI50: 10.7 µM
  TGI: 23.7 µM
KM12 colon
  GI50: 3.31 µM
  TGI: 13.2 µM
RPMI-8226 leukemia
  GI50: 2.09 µM
  TGI: 5.09 µM
SNB-19 CNS
  GI50: 28.4 µM
  TGI: 76.2 µM
HS 578T breast
  GI50: 28.5 µM
  TGI: 72.4 µM
IGROV1 ovarian
  GI50: 0.766 µM
  TGI: 20.2 µM

## S=C1NC2(CCCCCC2)NN1c1ccccc1
UO-31 renal
  TGI: > 100 µM
SW-620 colon
  TGI: > 100 µM
CCRF-CEM leukemia
  TGI: > 64.9 µM
CAKI-1 renal
  TGI: > 100 µM
KM12 colon
  TGI: > 100 µM
RPMI-8226 leukemia
  TGI: > 100 µM
SNB-19 CNS
  TGI: > 100 µM
HS 578T breast
  TGI: > 100 µM
IGROV1 ovarian
  TGI: > 100 µM

## C=COCCCOc1ccccc1
UO-31 renal
  TGI: > 100 µM
SW-620 colon
  TGI: > 100 µM
CCRF-CEM leukemia
  TGI: > 100 µM
HCC-2998 colon
  TGI: > 100 µM
CAKI-1 renal
  TGI: > 100 µM
KM12 colon
  TGI: > 100 µM
RPMI-8226 leukemia
  TGI: > 100 µM
SNB-19 CNS
  TGI: > 100 µM
HS 578T breast
  GI50: > 100 µM
  TGI: > 100 µM

## O=C1c2cccc(NCCCNCCO)c2C(=O)c2cccc(NCCCNCCO)c21
UO-31 renal
  TGI: 22.2 µM and 21.4 µM
SW-620 colon
  TGI: 3.41 µM and 7.57 µM
CCRF-CEM leukemia
  TGI: 7.09 µM and 6.97 µM
HCC-2998 colon
  TGI: 2.4 µM and 2.13 µM
KM12 colon
  TGI: 4.43 µM and 5.84 µM
RPMI-8226 leukemia
  TGI: 5.58 µM and 6.85 µM
SNB-19 CNS
  TGI: 5.58 µM
HS 578T breast
  TGI: 2.65 µM
IGROV1 ovarian
  TGI: 8.22 µM and 9.3 µM

## CCC[CH2][Sn]1([CH2]CCC)[O]N=C(c2ccccc2)C(c2ccccc2)[O]1 (stereo not given)
UO-31 renal
  GI50: 1.68 µM
  TGI: 3.46 µM
SW-620 colon
  GI50: 0.989 µM
  TGI: 2.27 µM
CCRF-CEM leukemia
  GI50: 0.29 µM
  TGI: 2.42 µM
HCC-2998 colon
  GI50: 2.18 µM
  TGI: 4.47 µM
CAKI-1 renal
  GI50: 0.97 µM
  TGI: 2.4 µM
KM12 colon
  GI50: 3.49 µM
  TGI: 14.1 µM
RPMI-8226 leukemia
  GI50: 0.588 µM
  TGI: 4.38 µM
SNB-19 CNS
  GI50: 2.14 µM
  TGI: 5.04 µM
IGROV1 ovarian
  GI50: 1.89 µM
  TGI: 3.9 µM

## COc1cc(C(Cc2ccccc2)NC(C)=O)oc(=O)c1 (stereo not given)
UO-31 renal
  TGI: > 100 µM
SW-620 colon
  TGI: > 100 µM
CCRF-CEM leukemia
  TGI: > 100 µM
HCC-2998 colon
  TGI: > 100 µM
CAKI-1 renal
  TGI: > 100 µM
KM12 colon
  TGI: > 100 µM
RPMI-8226 leukemia
  TGI: > 100 µM
SNB-19 CNS
  TGI: > 100 µM
IGROV1 ovarian
  TGI: > 100 µM

## [Cl][Hg][c]1cc(Br)cc(Br)c1
UO-31 renal
  GI50: 4.64 µM
  TGI: 15.5 µM
SW-620 colon
  GI50: 1.74 µM
  TGI: 3.52 µM
CCRF-CEM leukemia
  GI50: 1.32 µM
  TGI: 4.22 µM
HCC-2998 colon
  GI50: 2.08 µM
  TGI: 4.29 µM
KM12 colon
  GI50: 2.78 µM
  TGI: 11.8 µM
RPMI-8226 leukemia
  GI50: 1.81 µM
  TGI: 4.86 µM
SNB-19 CNS
  GI50: 1.2 µM
  TGI: 2.51 µM
HS 578T breast
  GI50: 1.58 µM
  TGI: 7.07 µM
IGROV1 ovarian
  GI50: 1.47 µM
  TGI: 3.41 µM
